This assay deals with Escherichia coli strain ATCC25922. The assay can be described thus: standard microdilution assay to determine minimum inhibitory concentrations (MICs). The assay is classed as cell-based. As to conditions: for E. coli ATCC25922 MIC: Escherichia coli strain ATCC25922, microdilution; for MIC: Escherichia coli, ATCC25922, Escherichia coli strain ATCC25922, microdilution, read-out: E. coli ATCC25922 MIC. The gist of the method:
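Broth microdilution MIC against E. coli ATCC25922, following CLSI protocols, typically in a 100 microliter final volume. Results reported as +/− relative to a 16 micrograms/ml cutoff.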

SMILES strings stand for the structures. Where only a bound is given, the exact number is not on record here.

Consider `CN1CCN(CCOc2cc(-n3cc4cc(-c5ccc(S(=O)(=O)NC6CCNCC6)cc5)[nH]c4nc3=O)ccc2C(=O)NCCCNC(=N)N)CC1` [Compound 1152], for which the “E. coli ATCC25922 MIC” value is on record as “− (a “−” indicates that the compound has an MIC value greater than 16 micrograms/ml)”.

On to `CS(=O)(=O)NCc1cc2cn(-c3ccc(CNCCCNC(=N)N)cc3)c(=O)nc2[nH]1` [Compound 1153], for which the MIC is > 16 µg/mL.

As for `N=C(N)NCCCNCc1ccc(-n2cc3cc(-c4ccc(S(=O)(=O)[C@H]5CCNC5)cc4)[nH]c3nc2=O)cc1` [Compound 1154], the MIC is < 16 µg/mL.

In the case of `N=C(N)N[C@H]1CCCN(Cc2ccc(-n3cc4cc[nH]c4nc3=O)cc2)C1` [Compound 1155], the minimum inhibitory concentration (MIC) is > 16 µg/mL.

On to `N[C@H]1CCCN(Cc2ccc(-n3cc4cc[nH]c4nc3=O)cc2)C1` [Compound 1156], for which the minimum inhibitory concentration (MIC) is > 16 µg/mL.

In the case of `NCc1ccc(-n2cc3cc(-c4cccc(S(=O)(=O)N(CCn5ccnc5)C5CCNCC5)c4)[nH]c3nc2=O)cc1` [Compound 1157], the MIC is > 16 µg/mL.

As to `COCCOCCN(C1CCNCC1)S(=O)(=O)c1cccc(-c2cc3cn(-c4ccc(CN)cc4)c(=O)nc3[nH]2)c1` [Compound 1158], the MIC is > 16 µg/mL.

Take `N=C(N)NCCCNCc1ccc(-n2cc3cc(-c4cccc(S(=O)(=O)N(CCn5ccnc5)C5CCNCC5)c4)[nH]c3nc2=O)cc1` [Compound 1159]: the MIC is < 16 µg/mL.

As to `NCc1ccc(-n2cc3cc(-c4cccc(S(=O)(=O)N(CCc5ccc(F)cc5)C5CCNCC5)c4)[nH]c3nc2=O)cc1` [Compound 1160], the MIC is > 16 µg/mL.

With `COCCOCCN(C1CCNCC1)S(=O)(=O)c1cccc(-c2cc3cn(-c4ccc(CNCCCNC(=N)N)cc4)c(=O)nc3[nH]2)c1` [Compound 1161], the “E. coli ATCC25922 MIC” value is “+ (a “+” indicates that the compound has an MIC value of 16 micrograms/ml or less)”.

Take `N=C(N)NCCCNCc1ccc(-n2cc3cc(-c4cccc(OCCCN5CCNCC5)c4)[nH]c3nc2=O)cc1` [Compound 1162]: the MIC is < 16 µg/mL.

On to `N=C(N)NCCC(=O)NCc1ccc(-n2cc3cc(-c4ccc(C[C@H](N)CO)cc4)[nH]c3nc2=O)cc1` [Compound 1163], for which the MIC was < 16 µg/mL.

Take `N=C(N)NCCCNC(=O)c1ccc(-n2cc3cc(-c4ccc(C[C@H](N)CO)cc4)[nH]c3nc2=O)cc1` [Compound 1164]: the MIC was < 16 µg/mL.

Consider `O=c1nc2[nH]c(-c3ccc(S(=O)(=O)NC4CCNCC4)cc3)cc2cn1-c1ccccc1OCC1CCNCC1` [Compound 1165], for which the MIC was > 16 µg/mL.

As to `N=C(N)NCCCNCc1ccc(-n2cc3cc(-c4ccccc4OCCCN4CCNCC4)[nH]c3nc2=O)cc1` [Compound 1166], the MIC was > 16 µg/mL.

On to `CN(C)CCOc1ccccc1-c1cc2cn(-c3ccc(CNCCCNC(=N)N)cc3)c(=O)nc2[nH]1` [Compound 1167], for which the MIC was > 16 µg/mL.

In the case of `NCc1ccc(-n2cc3cc(-c4cccc(OCCF)c4)[nH]c3nc2=O)cc1` [Compound 1168], the MIC is > 16 µg/mL.

Take `N=C(N)NCCCNCc1ccc(-n2cc3cc(-c4ccc(S(=O)(=O)C[C@@H](O)CN5CCCCC5)cc4)[nH]c3nc2=O)cc1` [Compound 1171]: the “E. coli ATCC25922 MIC” value is listed as “+ (a “+” indicates that the compound has an MIC value of 16 micrograms/ml or less)”.

Turning to `N=C(N)NCCCNCc1ccc(-n2cc3cc(-c4cccc(S(=O)(=O)N(CCc5ccc(F)cc5)C5CCNCC5)c4)[nH]c3nc2=O)cc1` [Compound 1172], the “E. coli ATCC25922 MIC” value is “+ (a “+” indicates that the compound has an MIC value of 16 micrograms/ml or less)”.

On to `N=C(N)NC(=O)CCNCc1ccc(-n2cc3cc(-c4ccc(S(=O)(=O)NC5CCNCC5)cc4)[nH]c3nc2=O)cc1` [Compound 1173], for which the “E. coli ATCC25922 MIC” value is on record as “− (a “−” indicates that the compound has an MIC value greater than 16 micrograms/ml)”.

For the molecule `NCc1ccc(-n2cc3cc(-c4cccc(S(=O)(=O)N(CCn5cccn5)C5CCNCC5)c4)[nH]c3nc2=O)cc1` [Compound 1174], the MIC is > 16 µg/mL.

For `N=C(N)NCCCNCc1ccc(-n2cc3cc(-c4ccc(S(=O)(=O)N(CCCc5cc(-c6ccccc6)n[nH]5)C5CCNCC5)cc4)[nH]c3nc2=O)cc1` [Compound 1175], the “E. coli ATCC25922 MIC” value was “+ (a “+” indicates that the compound has an MIC value of 16 micrograms/ml or less)”.

Take `N=C(N)NCCCNCc1ccc(-n2cc3cc(-c4cccc(S(=O)(=O)N(CCn5cccn5)C5CCNCC5)c4)[nH]c3nc2=O)cc1` [Compound 1176]: the “E. coli ATCC25922 MIC” value is “+ (a “+” indicates that the compound has an MIC value of 16 micrograms/ml or less)”.

Consider `N=C(N)N[C@@H]1CCCN(Cc2ccc(-n3cc4cc(-c5ccc(S(=O)(=O)N(Cc6ccncc6)C6CCNCC6)cc5)[nH]c4nc3=O)cc2)C1` [Compound 1177], for which the “E. coli ATCC25922 MIC” value was “− (a “−” indicates that the compound has an MIC value greater than 16 micrograms/ml)”.

Take `N=C(N)NC1CCN(Cc2ccc(-n3cc4cc(-c5ccc(S(=O)(=O)N(Cc6ccncc6)C6CCNCC6)cc5)[nH]c4nc3=O)cc2)C1` (stereo not shown) [Compound 1178]: the “E. coli ATCC25922 MIC” value is recorded as “+ (a “+” indicates that the compound has an MIC value of 16 micrograms/ml or less)”.

With `NCCCOc1cccc(-c2cc3cn(-c4ccc(CNCCCN=C(N)N)cc4)c(=O)nc3[nH]2)c1` [Compound 1179], the “E. coli ATCC25922 MIC” value was “+ (a “+” indicates that the compound has an MIC value of 16 micrograms/ml or less)”.

`N=C(N)NCCCNCc1ccc(-n2cc3cc(-c4ccc(S(=O)(=O)C5CCNCC5)cc4)[nH]c3nc2=O)cc1` [Compound 1180]: the MIC is < 16 µg/mL.

As for `CN(C)CCCOc1cccc(-c2cc3cn(-c4ccc(CNCCCNC(=N)N)cc4)c(=O)nc3[nH]2)c1` [Compound 1181], the MIC was < 16 µg/mL.

Consider `NCc1ccc(-n2cc3cc(-c4cccc(S(=O)(=O)N(CCc5ccc(O)cc5)C5CCNCC5)c4)[nH]c3nc2=O)cc1` [Compound 1182], for which the MIC is > 16 µg/mL.

Take `NCc1ccc(-n2cc3cc(-c4cccc(S(=O)(=O)N(CCN5CCCC5)C5CCNCC5)c4)[nH]c3nc2=O)cc1` [Compound 1183]: the MIC was > 16 µg/mL.

`NCc1ccc(-n2cc3cc(-c4cccc(S(=O)(=O)N(CCc5cccc([N+](=O)[O-])c5)C5CCNCC5)c4)[nH]c3nc2=O)cc1` [Compound 1184]: the MIC was > 16 µg/mL.

For the molecule `NC(N)=NCCCNCc1ccc(-n2cc3cc(-c4cccc(S(=O)(=O)N(CCc5cccc([N+](=O)[O-])c5)C5CCNCC5)c4)[nH]c3nc2=O)cc1` [Compound 1185], the “E. coli ATCC25922 MIC” value is reported as “+ (a “+” indicates that the compound has an MIC value of 16 micrograms/ml or less)”.

As for `NC(N)=NCCCNCc1ccc(-n2cc3cc(-c4cccc(S(=O)(=O)N(CCN5CCCC5)C5CCNCC5)c4)[nH]c3nc2=O)cc1` [Compound 1186], the “E. coli ATCC25922 MIC” value is “+ (a “+” indicates that the compound has an MIC value of 16 micrograms/ml or less)”.

Consider `NCc1ccc(-n2cc3cc(-c4cccc(S(=O)(=O)N(CCn5cccc5)C5CCNCC5)c4)[nH]c3nc2=O)cc1` [Compound 1187], for which the MIC was > 16 µg/mL.

As for `O=c1nc2[nH]c(-c3ccc(S(=O)(=O)NC4CCNCC4)cc3)cc2cn1-c1cccc(OCc2c[nH]cn2)c1` [Compound 1188], the MIC was > 16 µg/mL.

For the molecule `N=C(N)NCCCNCc1ccc(-n2cc3cc(CCS(=O)(=O)CCN)[nH]c3nc2=O)cc1` [Compound 1189], the MIC is < 16 µg/mL.

With `NC(N)=NCCC(=O)NCc1ccc(-n2cc3cc(-c4ccc(S(=O)(=O)N(CCCc5cccnc5)C5CCNCC5)cc4)[nH]c3nc2=O)cc1` [Compound 1190], the “E. coli ATCC25922 MIC” value was “− (a “−” indicates that the compound has an MIC value greater than 16 micrograms/ml)”.

In the case of `N=C(N)CCCOc1cccc(-c2cc3cn(-c4ccc(CNCCCNC(=N)N)cc4)c(=O)nc3[nH]2)c1` [Compound 1191], the MIC is > 16 µg/mL.

On to `NC(=O)CCCN(C1CCNCC1)S(=O)(=O)c1ccc(-c2cc3cn(-c4ccc(CNC(=O)CCN=C(N)N)cc4)c(=O)nc3[nH]2)cc1` [Compound 1194], for which the “E. coli ATCC25922 MIC” value was “− (a “−” indicates that the compound has an MIC value greater than 16 micrograms/ml)”.

Take `NC(N)=NCCC(=O)NCc1ccc(-n2cc3cc(-c4ccc(S(=O)(=O)N(CCOc5ccc(F)cc5)C5CCNCC5)cc4)[nH]c3nc2=O)cc1` [Compound 1196]: the “E. coli ATCC25922 MIC” value is “− (a “−” indicates that the compound has an MIC value greater than 16 micrograms/ml)”.

Regarding `N=C(N)NCCCNCc1ccc(-n2cc3cc(-c4cccc(CCN5CCNCC5)c4)[nH]c3nc2=O)cc1` [Compound 1199], the MIC was < 16 µg/mL.

As to `NCc1ccc(-n2cc3cc(-c4cccc(CCN5CCNCC5)c4)[nH]c3nc2=O)cc1` [Compound 1200], the MIC was > 16 µg/mL.

Consider `N=C(N)N[C@@H]1CCN(Cc2ccc(-n3cc4cc(-c5ccc(S(=O)(=O)N(CCCN6CCCCC6)C6CCNCC6)cc5)[nH]c4nc3=O)cc2)C1` [Compound 1201], for which the “E. coli ATCC25922 MIC” value is recorded as “+ (a “+” indicates that the compound has an MIC value of 16 micrograms/ml or less)”.

In the case of `CN(C)CCCOc1cccc(-c2cc3cn(-c4ccc(CNC(=O)CCNC(=N)N)cc4)c(=O)nc3[nH]2)c1` [Compound 1202], the MIC is > 16 µg/mL.

Take `N#CCCCOc1cccc(-c2cc3cn(-c4ccc(CNCCCNC(=N)N)cc4)c(=O)nc3[nH]2)c1` [Compound 1203]: the MIC is > 16 µg/mL.

Regarding `CN(CCCOc1cccc(-c2cc3cn(-c4ccc(CNCCCNC(=N)N)cc4)c(=O)nc3[nH]2)c1)C(=O)c1ccccc1` [Compound 1204], the MIC was > 16 µg/mL.

With `NC(N)=NCCC(=O)NCc1ccc(-n2cc3cc(-c4ccc(S(=O)(=O)N(Cc5ccccc5SC(F)(F)F)C5CCNCC5)cc4)[nH]c3nc2=O)cc1` [Compound 1205], the “E. coli ATCC25922 MIC” value is recorded as “− (a “−” indicates that the compound has an MIC value greater than 16 micrograms/ml)”.

For the molecule `N=C(N)N[C@@H]1CCN(Cc2ccc(-n3cc4cc(-c5ccc(S(=O)(=O)N(CC6CCOCC6)C6CCNCC6)cc5)[nH]c4nc3=O)cc2)C1` [Compound 1206], the “E. coli ATCC25922 MIC” value is given as “− (a “−” indicates that the compound has an MIC value greater than 16 micrograms/ml)”.

Turning to `CN1CCN(CCCN(C2CCNCC2)S(=O)(=O)c2ccc(-c3cc4cn(-c5ccc(CN6CC[C@@H](NC(=N)N)C6)cc5)c(=O)nc4[nH]3)cc2)CC1` [Compound 1207], the “E. coli ATCC25922 MIC” value is reported as “− (a “−” indicates that the compound has an MIC value greater than 16 micrograms/ml)”.

For the origin of these results see patent publication US9193731B2, “Antimicrobial compounds and methods of making and using the same” (Melinta Therapeutics, Inc., priority 2009, dated 2015).
